In patent US11186587B2, “Compound as ACC inhibitor and use thereof” (NANJING SANHOME PHARMACEUTICAL CO., LTD., priority 2017, dated 2021):
Like-named read-outs stand apart in the source and are kept apart here.

Key:
ACC1 = ACC1 (Homo sapiens (Human), UniProt Q13085); experiment: ACC1 enzyme activity assay (ADP-Glo); type: biochemical; settings: ACC1 enzyme 2 nM working solution, room temperature
Experimental: (§1) Compound preparation: the compounds of the present disclosure prepared in the above examples and the control compound were respectively formulated into 10 mM with DMSO for use.
(§2) Preparation of 1× reaction buffer (pH=7.4): HEPES stock solutions (1 M), MgCl2 (1 M), BRIJ-35 (10%), potassium citrate buffer (1 M), BSA (10 mg/mL) and DTT (500 mM) were formulated to enzyme reaction buffer containing HEPES (50 mM), MgCl2 (2 mM), BRIJ-35 (0.01%), potassium citrate buffer (2 mM), BSA (50 Gg/mL) and DTT (2 mM).
4.5 μL of 2.2×ACC1 enzyme (2 nM) working solution was added to a 384-well plate; and then 0.5 μL of different concentrations of compound were added. The mixture was incubated at room temperature for 15 min.
(§3) Negative control group: menstruum containing 5% DMSO; positive control group: menstruum containing 100 nM ND-630. The average values of each concentration and the positive and negative controls were calculated, and the standard deviation was calculated. […] The inhibition rate data was fitted by nonlinear regression equation to calculate IC50 of each compound. The nonlinear regression equation was Y=lowest value+(highest value−lowest value)/(1+10^((Log IC50−X)×HillSlope)), among which X is logarithm of the compound concentration and Y is inhibition percent (%).

ACC2 = ACC2 (Homo sapiens (Human), UniProt O00763); experiment: ACC2 enzyme activity assay (ADP-Glo); type: biochemical; settings: ACC2 enzyme 1.1 nM working solution, room temperature
Experimental: as §1, §2
The mixture was incubated at room temperature for 15 min.
as §3

[1] = Evaluation of compound distribution in rat liver; type: in vivo; settings: male SD rats, single oral 3 mg/kg, 0.25 h after administration; for Kp at 0.25 h: liver/plasma, read-out: Liver/plasma distribution ratio
Experimental: An acclimation period of 2-3 days was given before the experiments. The rats were fasted for 8-12 h before administration, supplied with water 2 h after administration and foods 4 h after administration.
6 mg of the test compound (based on free base) was weighed and added to 20 mL of ethanol-PEG400-saline (10:30:60). The mixture was vortexed for 2 min, and sonicated for 3 min, and then used to prepare a solution of test sample solution with a concentration of 0.3 mg/mL for oral administration. 100 μL of the test sample solution was volumed to 10 ng/mL with methanol, and a control sample of the same concentration was prepared. The concentrations of the test sample and control sample were detected by HPLC, and the accuracy was calculated.
SD rats were given a single oral administration of 3 mg/kg of test compound at a dose of 10 mL/kg. The rats were bled in femoral artery and ruptured in neck 0.25 h after administration. The liver and blood samples (anticoagulation with heparin sodium) were collected immediately, and placed on ice.
The homogenate was centrifuged (centrifugation conditions: 8000 rpm/min, 5 min, 4° C.). The supernatant was transferred and subjected to cryopreservation. The supernatant was thawed and centrifuged before injection, and the supernatant was collected and subjected to LC-MS/MS for analyzing the content of the compound in the supernatant sample.
The collected whole blood sample was placed on ice and centrifuged within 30 min (centrifugation conditions: 8000 rpm/min, 5 min, 4° C.). 100 μL of the upper layer of plasma was transferred, and precipitated with 300 μL of methanol. The mixture was shaken and centrifuged, and diluted with mobile phase. The supernatant was collected and subjected to LC-MS/MS for analyzing the content of the compound in the supernatant sample.

[2] = tested on: Col1A1 gene expression in TGF-β1-induced LX-2 cells; experiment: Inhibition of human hepatic stellate cells LX-2 activation in vitro (Col1A1 gene expression, real-time PCR); type: cell-based; settings: TGFβ1 10 ng/mL, 24 h drug treatment, compound concentration of the tabulated value not stated (30, 10, 3 μM prepared)
Experimental: The compounds of the present disclosure prepared in the above examples and the control compound were respectively formulated into 60 mM with DMSO for use.
DMSO stock solution of the compounds of the examples of the present disclosure and the control compound were sequentially diluted with culture medium to 30 μM, 10 μM, and 3 μM. TGF-β1 was dissolved to […] with 10 mM citric acid buffer in the kit (PeproTech) according to the instructions, ready for use.
LX-2 cells were inoculated into a 6-well culture plate at a density of 2×10^5 cells/mL after cell passage. Each well contained 2 mL DMEM with 10% FBS. The cells were cultured at 37° C. in a 5% CO2 incubator, which was recorded as Day 1. After 24 h (Day 2), the cell confluence reached 70-80%, the old culture medium was discarded, and the serum-free DMEM was used to treat the cells as low serum starvation. The old culture medium was discarded at Day 3, and the culture medium or the culture medium containing different concentrations of the drug was added for continuing culture. There were control group (serum-free DMEM culture medium), TGFβ1 group, TGFβ1+ compound group. The TGFβ1 working concentration was 10 ng/mL. 24 h after the drug treatment (Day 4), the cell medium was discarded and the cells were washed once with precooled 1×PBS and then subjected to total RNA extraction.
2.3.1 Sample pretreatment: 1 mL of TransZOL Up reagent was added to each well of the 6-well plate, and the well plate was placed horizontally for a while to let the lysis buffer evenly spread on the cell surface and lyse the cells. The cells were blown with a pipette to make the cells completely detached. The lysate was transferred to a 2 mL RNase free centrifuge tube and repeatedly blown and sucked until no significant pieces in the lysate.
The extracted RNA was diluted to a concentration of 0.1 μg-0.5 μg (Total RNA ≤1 μg) based on the same mass. The total RNA in the reverse transcription system of each sample in the experiment was about 500 ng.
Two replicates were set for each sample, and the relative expression of the target gene was calculated by the program in the PCR machine.
The threshold of the Real Time PCR result was automatically set by the Real Time PCR detector system. The relative expression of the Col1A1 gene was calculated as follows. ΔCt (Col1A1 in drug treatment group)=Avg. Ct (Col1A1 in drug treatment group)−Avg. Ct (GAPDH in drug treatment group) ΔCt (Col1A1 in TGF group)=Avg. Ct (Col1A1 in TGF group)−Avg. Ct (GAPDH in TGF group) ΔCt (Col1A1 in Control group)=Avg. Ct (Col1A1 in Control group)−Avg. Ct (GAPDH in Control group) ΔΔCt=Average value of ΔCt (Col1A1 in TGF group/drug treatment group)−ΔCt (Col1A1 in Control group)
Formula for calculating the relative expression of Col1A1 gene: RQ=^2−ΔΔCt
Relative quantification results were obtained by automatically analysis of ABI 7500 real-time quantitative PCR machine.

[3] = liver, read-out: Concentration in Liver
[4] = plasma, read-out: Concentration in Plasma

Sequence of ACC2 (O00763 whole entry): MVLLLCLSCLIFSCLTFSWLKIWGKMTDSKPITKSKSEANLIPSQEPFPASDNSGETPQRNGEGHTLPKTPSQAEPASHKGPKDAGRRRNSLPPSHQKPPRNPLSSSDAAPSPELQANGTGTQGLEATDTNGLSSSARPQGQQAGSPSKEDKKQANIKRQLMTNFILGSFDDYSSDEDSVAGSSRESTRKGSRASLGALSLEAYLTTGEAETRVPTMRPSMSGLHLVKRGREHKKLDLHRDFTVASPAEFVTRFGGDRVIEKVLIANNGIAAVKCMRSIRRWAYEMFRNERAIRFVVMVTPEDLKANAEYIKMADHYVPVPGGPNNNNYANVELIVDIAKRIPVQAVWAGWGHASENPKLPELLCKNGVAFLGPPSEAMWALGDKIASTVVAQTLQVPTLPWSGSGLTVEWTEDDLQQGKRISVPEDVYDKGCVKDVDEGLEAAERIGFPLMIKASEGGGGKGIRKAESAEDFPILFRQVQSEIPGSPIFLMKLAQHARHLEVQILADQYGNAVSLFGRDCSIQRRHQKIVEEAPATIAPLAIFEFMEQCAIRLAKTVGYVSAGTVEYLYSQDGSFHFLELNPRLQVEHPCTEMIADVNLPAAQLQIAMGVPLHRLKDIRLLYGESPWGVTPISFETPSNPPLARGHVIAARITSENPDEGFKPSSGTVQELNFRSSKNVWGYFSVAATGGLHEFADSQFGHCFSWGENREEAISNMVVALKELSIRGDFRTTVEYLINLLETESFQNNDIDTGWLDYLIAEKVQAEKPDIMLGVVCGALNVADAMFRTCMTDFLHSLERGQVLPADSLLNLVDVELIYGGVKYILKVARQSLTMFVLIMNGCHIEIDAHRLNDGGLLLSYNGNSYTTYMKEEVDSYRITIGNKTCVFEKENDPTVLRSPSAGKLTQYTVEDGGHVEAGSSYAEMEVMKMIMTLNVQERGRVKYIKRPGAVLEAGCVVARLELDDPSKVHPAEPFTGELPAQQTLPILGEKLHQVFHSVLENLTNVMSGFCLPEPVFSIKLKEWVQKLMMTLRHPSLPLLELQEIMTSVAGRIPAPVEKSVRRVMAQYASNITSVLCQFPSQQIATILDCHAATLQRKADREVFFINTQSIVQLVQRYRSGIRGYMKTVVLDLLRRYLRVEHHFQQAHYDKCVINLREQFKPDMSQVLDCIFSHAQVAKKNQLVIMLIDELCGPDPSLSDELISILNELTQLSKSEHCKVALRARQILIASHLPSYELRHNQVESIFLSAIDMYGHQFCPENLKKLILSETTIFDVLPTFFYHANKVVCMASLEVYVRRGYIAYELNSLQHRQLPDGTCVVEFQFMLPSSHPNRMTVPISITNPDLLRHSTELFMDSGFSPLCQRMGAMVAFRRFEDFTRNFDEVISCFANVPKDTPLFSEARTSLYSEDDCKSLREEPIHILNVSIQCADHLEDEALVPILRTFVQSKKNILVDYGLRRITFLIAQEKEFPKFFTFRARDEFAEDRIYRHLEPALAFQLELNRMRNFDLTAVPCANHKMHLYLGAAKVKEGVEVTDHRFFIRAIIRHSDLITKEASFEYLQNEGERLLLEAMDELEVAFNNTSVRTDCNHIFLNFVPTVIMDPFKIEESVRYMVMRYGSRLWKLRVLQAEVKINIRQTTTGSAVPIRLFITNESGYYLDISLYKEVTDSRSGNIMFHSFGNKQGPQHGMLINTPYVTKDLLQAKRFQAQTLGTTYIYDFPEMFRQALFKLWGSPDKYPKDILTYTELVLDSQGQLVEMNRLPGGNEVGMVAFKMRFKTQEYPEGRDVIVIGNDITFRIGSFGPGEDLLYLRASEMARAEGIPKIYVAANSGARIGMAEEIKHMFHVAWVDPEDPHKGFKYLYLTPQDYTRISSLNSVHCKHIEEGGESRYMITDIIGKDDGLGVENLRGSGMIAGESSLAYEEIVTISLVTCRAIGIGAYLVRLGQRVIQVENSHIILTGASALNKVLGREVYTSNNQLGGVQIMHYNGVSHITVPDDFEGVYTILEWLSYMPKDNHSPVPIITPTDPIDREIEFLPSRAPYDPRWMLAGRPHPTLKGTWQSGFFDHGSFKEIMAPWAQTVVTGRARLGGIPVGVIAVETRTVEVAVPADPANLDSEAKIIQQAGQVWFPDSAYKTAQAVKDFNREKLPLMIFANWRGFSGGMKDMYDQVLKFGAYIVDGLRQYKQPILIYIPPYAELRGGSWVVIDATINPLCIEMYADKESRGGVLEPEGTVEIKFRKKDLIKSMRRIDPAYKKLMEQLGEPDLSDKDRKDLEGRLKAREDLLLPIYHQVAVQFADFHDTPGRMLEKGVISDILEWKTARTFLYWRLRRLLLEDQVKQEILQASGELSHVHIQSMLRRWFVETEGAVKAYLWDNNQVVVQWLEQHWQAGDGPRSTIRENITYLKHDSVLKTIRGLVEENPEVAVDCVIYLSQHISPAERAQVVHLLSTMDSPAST

| IC50 (ACC1) [nM] | IC50 (ACC2) [nM] | concentration at 0.25 h [1, 3] [ng/g] | Kp at 0.25 h [1] | concentration at 0.25 h [1, 4] [ng/mL] | Compound | Inhibition rate (%) of relative expression of the Col1A1 gene [2] [%] |
| --- | --- | --- | --- | --- | --- | --- |
| 2.23 | 12.4 | 1460 | 75.5 | 19.3 | COc1ccccc1C(Cn1c(=O)n(C2CN(C(C)=O)C2)c(=O)c2c(C)c(-c3ncco3)sc21)OC1CCOCC1 (stereo not shown) [Example 7] | – |
| 3.06 | 5.12 | 3170 | 65.3 | 48.5 | COc1ccccc1C(Cn1c(=O)n(-c2ccc(C(=O)O)cc2)c(=O)c2c(C)c(-c3ncco3)sc21)OC1CCOCC1 (stereo not shown) [Example 24, 4-(1-(2-(2-methoxyphenyl)-2-((tetrahydro-2H-pyran-4-yl)oxy)ethyl)-5-methyl-6-(oxazol-2-yl)-2,4-dioxo-1,4-dihydrothieno[2,3-d]pyrimidin-3(2H)-yl)benzoic Acid] | – |
| – | – | – | – | – | COc1ccccc1[C@H](Cn1c(=O)n(-c2ccc(C(=O)O)cc2)c(=O)c2c(C)c(-c3ncco3)sc21)OC1CCOCC1 [Example 24a, (R)-4-(1-(2-(2-methoxyphenyl)-2-((tetrahydro-2H-pyran-4-yl)oxy)ethyl)-5-methyl-6-(oxazol-2-yl)-2,4-dioxo-1,4-dihydrothieno[2,3-d]pyrimidin-3(2H)-yl)benzoic Acid] | 24.50 |
| 1.57 | 7.57 | 3200 | 151 | 21.2 | COc1ccccc1C(Cn1c(=O)n(-c2cccc(C(=O)O)c2)c(=O)c2c(C)c(-c3ncco3)sc21)OC1CCOCC1 (stereo not shown) [Example 25, 3-(1-(2-(2-methoxyphenyl)-2-((tetrahydro-2H-pyran-4-yl)oxy)ethyl)-5-methyl-6-(oxazol-2-yl)-2,4-dioxo-1,4-dihydrothieno[2,3-d]pyrimidin-3(2H)-yl)benzoic Acid] | 62.94 |
| 2.13 | 14.1 | – | – | – | COc1ccccc1C(Cn1c(=O)n(-c2cccc(C(=O)O)c2OC)c(=O)c2c(C)c(-c3ncco3)sc21)OC1CCOCC1 (stereo not shown) [Example 29, 2-Methoxy-3-(1-(2-(2-methoxyphenyl)-2-((tetrahydro-2H-pyran-4-yl)oxy)ethyl)-5-methyl-6-(oxazol-2-yl)-2,4-dioxo-1,4-dihydrothieno[2,3-d]pyrimidin-3(2H)-yl)benzoic Acid] | – |
| – | – | – | – | – | COc1ccccc1[C@H](Cn1c(=O)n(-c2cccc(C3(C(=O)O)CC3)c2)c(=O)c2c(C)c(-c3ncco3)sc21)OC1CCOCC1 [Example 56] | 105.01 |

| Compound | IC50 (ACC1) [nM] | IC50 (ACC2) [nM] | concentration at 0.25 h [1, 3] [ng/g] | Kp at 0.25 h [1] | concentration at 0.25 h [1, 4] [ng/mL] | Inhibition rate (%) of relative expression of the Col1A1 gene [2] [%] |
| --- | --- | --- | --- | --- | --- | --- |
| COc1ccccc1C(Cn1c(=O)n(C2CC(C(=O)O)C2)c(=O)c2c(C)c(-c3ncco3)sc21)OC1CCOCC1 (stereo not shown) [Example 1, 3-(1-(2-(2-methoxyphenyl)-2-((tetrahydro-2H-pyran-4-yl)oxy)ethyl)-5-methyl-6-(oxazol-2-yl)-2,4-dioxo-1,4-dihydrothieno[2,3-d]pyrimidin-3(2H)-yl)cyclobutane-1-carboxylic Acid] | 0.69 | 5.13 | 4180 | 144 | 29.1 | – |
| COc1ccccc1[C@H](Cn1c(=O)n([C@H]2C[C@@](C)(C(=O)O)C2)c(=O)c2c(C)c(-c3ncco3)sc21)OC1CCOCC1 [Example 4, (1S,3s)-3-(1-((R)-2-(2-methoxyphenyl)-2-((tetrahydro-2H-pyran-4-yl)oxy)ethyl)-5-methyl-6-(oxazol-2-yl)-2,4-dioxo-1,4-dihydrothieno[2,3-d]pyrimidine-3(2H)-yl)-1-methylcyclobutanecarboxylic Acid] | 0.68 | 3.16 | 4830 | 67.1 | 72.8 | 78.54 |
